Results reported in patent US8324457B2, “Soybean event 3560.4.3.5 and compositions and methods for the identification and/or detection thereof” (Pioneer Hi-Bred International, Inc., priority 2006, dated 2012).
Like-named read-outs stand apart in the source and are kept apart here.

Legend:
[1] = tested on: transgenic event 3560.4.3.5 soybean; assay: Greenhouse herbicide tolerance of T0 and T1 plants, visual rating 10 days after spray; type: in vivo, Glycine max
Excerpt: Selected events were advanced at the T1 generation for herbicide tolerance confirmation in greenhouses. Plants were sprayed at the V3 growth stage with either 1.68 kg ae ha^−1 glyphosate, 60 g ai ha^−1 thifensulfuron methyl(methyl 3-[[[[(4-methoxy-6-methyl-1,3,5-triazin-2-yl)amino]carbonyl]amino]sulfonyl]-2-thiophenecarboxylate), or a sequential […] […] […] Since the T1 events were segregating, only the non-susceptible plants were scored, and an average rating of tolerant plants within each event was calculated.
(§1) T0 3560.4.3.5 soybean were evaluated for glyphosate tolerance.
The 3560.4.3.5 event was advanced to the T1 generation in a greenhouse to confirm herbicide tolerance. The 3560.4.3.5 event had tolerance after application of 1.68 kg ae ha^−1 glyphosate, after application of 60.0 g ai ha^−1 thifensulfuron methyl, and after a sequential application of 70 g ai ha^−1 thifensulfuronmethyl at V3, […]

[2] = tested on: untransformed parental line; assay: Greenhouse glyphosate spray of the control line, visual rating; type: in vivo, Glycine max; settings: either glyphosate application rate of the T0 test; 1 to 9 scale, 1 = dead plant
Description: Plants were rated using a 1 to 9 scale ten days after treatment (DAT), where 1=dead plant to 9=no observed spray response.
as §1

[3] = tested on: 3560.4.3.5 soybean; assay: Field glyphosate tolerance trials, T3 and T4 plants, visual rating; type: in vivo, Glycine max
Description: (§2) The 3560.4.3.5 soybean event was evaluatead for glyphosate tolerance. […] Plots were evaluated for crop response at 7 and 14 days after treatment (DAT), and rated using a 1-9 score. Crop response data were analyzed using the general linear model (GLM) and mixed model analysis of variance (ANOVA) procedures of SAS. (The SAS System is a registered trademark of SAS Institute, Inc., Cary, N.C., USA)
Selected T4 lines were tested for glyphosate tolerance. This experiment was a RCB design in a split plot arrangement with two replications of individual 1.2 m rows (76.2 cm row spacing). At the V3 growth stage, 6.72 kg ae ha^−1 glyphosate was applied to one block, while another was unsprayed for use as a control. The third block received a sequential application of 6.72 kg ae ha^−1 glyphosate at V3 followed by 6.72 kg ae ha^−1 glyphosate at R1. Plots were evaluated for crop response at 7 DAT and 14 DAT, and assigned a visual response score from 0% to 100% response, where 0%=no response observed to 100%=plot completely dead.
(§3) The T3 plants from the 3560.4.3.5 plants were sprayed in a glyphosate herbicide tolerance field trial. […] The untransformed control line was susceptible to any glyphosate application and was consistently rated as a 1. 3560.4.3.5 soybean T4 plants were advanced for additional glyphosate tolerance testing.

[4] = tested on: untransformed control line; assay: Field glyphosate tolerance trial, control line; type: in vivo, Glycine max; settings: any glyphosate application (3.36, 6.72 or 13.44 kg ae ha-1), 1 to 9 scale
Description: as §2, §3

[5] = tested on: 3560.4.3.5 soybean; assay: Tolerance to glyphosate tank mixes with other pesticides at V2 or R2, crop response rating; settings: glyphosate 3.36 kg ae ha-1, chlorpyrifos 560.4, bentazon 1120.9, imazethapyr 141.3, fomesafen 263.4, tribenuron-methyl 17.5, thifensulfuron-methyl 17.5 g ai ha-1
Description: The first experiments were grown in an RCB design of three replications of paired 3.7 m rows (76.2 cm row spacing), blocked by replication with randomized spray treatments within each replication. […] Visual response ratings (0% to 100%) were assigned to each plot at 7 DAT, 14 DAT, and 28 DAT. Crop response data were analyzed using the GLM and mixed model ANOVA procedures of SAS.

[6] = tested on: 3560.4.3.5 soybean; type: in vivo, Glycine max; settings: glyphosate 1.68 kg ae ha^−1, ALS inhibitors 5.8 + 4.4 g ai ha^−1
Description: The second set of tolerance experiments were designed to measure yield potential of 3560.4.3.5 soybean after application of common field use rates of glyphosate and/or ALS inhibitor herbicides. […] One experiment was grown at field A and two experiments were grown at field B and C (which were separated by planting date and physical distance of field locations.) In addition, the two fields had different environmental influence; one field experienced drought stress through the spring and early summer, the other was well irrigated throughout the growing season. Treatments were randomized within each of the replications and sprayed at the VC, V2, R2, or R5 growth stages. Treatments consisted of 1.68 kg ai ha^−1 glyphosate, 5.8 g ai ha^−1 chlorimuron ethyl+4.4 g ai ha^−1 thifensulfuron methyl, and 1.68 kg ai ha^−1 glyphosate+5.8 g ai ha^−1 chlorimuron ethyl+4.4 g ai ha^−1 thifensulfuron methyl. […] Plots were harvested and yield was calculated for each plot.
The second set of experiments conducted with event 3560.4.3.5 were designed to measure yield potential after application of different herbicides at field use rates that would be commonly utilized for soybean production. Across the glyphosate, ALS inhibitor, and glyphosate plus ALS inhibitor treatments there was minimal (10% or less) to essentially no response at 7, 14, and 28 DAT (Table 20). When yield data was collected, there were no significant yield differences detected for any of the herbicide treatments applied at different the growth stages (Table 20). In addition, the replications that received herbicide treatments were not statistically different from the unsprayed control replications for yield (Table 20). Based upon multiple year herbicide tolerance trials, it can be concluded that event 3560.4.3.5 had excellent tolerance to field use rates of glyphosate, ALS inhibitor, and glyphosate plus ALS inhibitor herbicides. In addition, yield potential was not affected when event 3560.4.3.5 was sprayed with glyphosate, ALS inhibitor, and glyphosate plus ALS inhibitor chemistries at different vegetative and reproductive growth stages.

SMILES: O=C(O)CNCP(=O)(O)O [Glyphosate]
- average visual response rating ([1]; T0 plants, glyphosate 1.68 kg ae ha-1 + NIS + AMS, 10 days after application, greenhouse, scale 0 = dead plant to 9 = no response detected): 7.0
- average visual response rating ([1]; T0 plants, glyphosate 3.36 kg ae ha-1 + NIS + AMS, 10 days after application, greenhouse, scale 0 = dead plant to 9 = no response detected): 6.5
- average visual response rating, second score of sequential application ([1]; T1 tolerant plants, 70 g ai ha-1 thifensulfuron methyl at V3 followed by glyphosate 1.68 kg ae ha-1 at V6, 10 days after the V6 glyphosate application, scale to 9 = no response): 8.0
- average visual response rating ([1]; T1 tolerant plants, glyphosate 1.68 kg ae ha-1 + NIS + AMS at V3, 10 days after application, scale to 9 = no response): 7.0
- visual rating [2]: 1
- LSMean visual rating ([3]; T3 plants, glyphosate 3.36 kg ae ha-1, 7 DAT, 1 = completely dead plot to 9 = no response): 8.0
- LSMean visual rating ([3]; T3 plants, glyphosate 6.72 kg ae ha-1, 7 DAT, 1 = completely dead plot to 9 = no response): 6.7
- LSMean visual rating ([3]; T3 plants, glyphosate 13.44 kg ae ha-1, 7 DAT, 1 = completely dead plot to 9 = no response): 5.7
- LSMean visual rating ([3]; T4 plants, glyphosate 6.72 kg ae ha-1 at V3, 7 DAT, 1 to 9 scale): 6.8
- LSMean visual rating ([3]; T4 plants, glyphosate 6.72 kg ae ha-1 at V3, 14 DAT, 1 to 9 scale): 7.8
- LSMean visual rating ([3]; T4 plants, sequential glyphosate 6.72 kg ae ha-1 at V3 then 6.72 at R1, 7 DAT after the R1 application, 1 to 9 scale): 7.8
- LSMean visual rating ([3]; T4 plants, sequential glyphosate 6.72 kg ae ha-1 at V3 then 6.72 at R1, 14 DAT after the R1 application, 1 to 9 scale): 7.7
- visual rating [4]: 1
- LSMean crop response rating, 7 DAT Average ([5]; applied at R2): 1.7%
- LSMean crop response rating, 14 DAT Average ([5]; applied at R2): 0.6%
- LSMean crop response rating, 28 DAT Average ([5]; applied at R2): 0.0%
- LSMean crop response rating, 14 DAT Average ([5]; applied at V2): 3.3%
- LSMean crop response rating, 28 DAT Average ([5]; applied at V2): 0.6%
- LSMean crop response rating, 7 DAT Average ([5]; applied at V2, + NIS + AMS, 0% = no response, 100% = plot completely dead): 3.9%
- crop response rating 7 DAT (LSMean) ([6]; Application Stage R2): 2.0%
- crop response rating 14 DAT (LSMean) ([6]; Application Stage R2): 0.6%
- crop response rating 28 DAT (LSMean) ([6]; Application Stage R2): 0.0%
- crop response rating 7 DAT (LSMean) ([6]; Application Stage R5): 0.3%
- crop response rating 14 DAT (LSMean) ([6]; Application Stage R5): 0.3%
- crop response rating 28 DAT (LSMean) ([6]; Application Stage R5): 0.0%
- crop response rating 7 DAT (LSMean) ([6]; Application Stage V2): 5.3%
- crop response rating 14 DAT (LSMean) ([6]; Application Stage V2): 2.8%
- crop response rating 28 DAT (LSMean) ([6]; Application Stage V2): 0.6%
- crop response rating 7 DAT (LSMean) ([6]; Application Stage VC): 1.6%
- crop response rating 14 DAT (LSMean) ([6]; Application Stage VC): 0.8%
- crop response rating 28 DAT (LSMean) ([6]; Application Stage VC): 0.6%
